This is an account of results in PubChem BioAssay (NCI).

Structures are written as SMILES.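 Five concentrations, 48 hours, 96-well plates. At the TGI there is no net growth.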

Common to all, as to experiment: inhibition of tumour cell growth, NCI panel, 48 h
The test system of assay [1] is A498 renal.
The subject of assay [2] is ACHN renal.
In assay [3] the test system is LOX IMVI melanoma.
Assay [4] concerns M14 melanoma.
Assay [5] deals with MALME-3M melanoma.
Assay [6] concerns NCI-H23 lung.
Assay [7] has as its system OVCAR-3 ovarian.
For assay [8], the system named is OVCAR-5 ovarian.
For assay [9], the system named is OVCAR-8 ovarian.
Assay [10] concerns PC-3 prostate.
Assay [11] deals with SF-295 CNS.
Assay [12] relates to SK-MEL-5 melanoma.
Assay [13] deals with SNB-75 CNS.
Assay [14] concerns TK-10 renal.
Assay [15] relates to U251 CNS.
Assay [16] concerns UACC-62 melanoma.
In assay [17] the test system is EKVX NSCLC.

For `Cc1[nH]n(C(=N)N)c(=O)c1CCO`, the TGI in assay [1], in assay [2], in assay [3], in assay [4], in assay [5] and in assay [6] was over 100 µM in each case. In addition, the TGI in assay [7] is over 100 µM; in [8], over 100 µM; in assay [9], 3.17 µM; in [10], over 100 µM; in [11], over 100 µM; in [12] it was over 100 µM. For the same compound, the TGI in assay [13], in [14], in assay [15] and in assay [16] was over 100 µM throughout.
Take `c1cc2nnc1SCCCSc1ccc(nn1)SCCCSc1ccc(nn1)SCCCS2`: the TGI in assay [1], in assay [2], in assay [3], in [4], in [5] and in assay [6] was over 100 µM each time. Further, the TGI in assay [7], in assay [8], in [9], in assay [10], in [11] and in [12] was over 100 µM in each case. Also, the TGI in [13] was 83.4 µM; in assay [14] it was over 100 µM; in [15] it was over 100 µM; in assay [16], over 100 µM.
In the case of `O=C(OC[C@H]1C[C@H]2C(=O)CCC[C@H]2O1)c1ccccc1`, the TGI in assay [1], in assay [2], in assay [17], in assay [3], in assay [4] and in assay [6] was over 100 µM in each case. Further, the TGI in assay [7], in [8], in assay [9], in assay [10], in assay [11] and in assay [12] was over 100 µM in each case. Also, the TGI in [13], in [14], in assay [15] and in assay [16] was over 100 µM in each case.
Take `COc1cc(/C=C/c2nc(N)nnc2C)cc(OC)c1OC`: the TGI in assay [1] was over 71.6 µM; in [2] it was over 56.1 µM; in assay [17], over 72.9 µM; in assay [3], over 35.9 µM; in assay [4] it was over 56.4 µM; in [5], 32.8 µM. The TGI in assay [6] was over 68.1 µM; in assay [8] it was over 58.9 µM; in [9], over 100 µM; in assay [10], over 53 µM; in assay [11], over 72.6 µM; in [12], 52.2 µM. In addition, the TGI in assay [14] is over 77.3 µM; in assay [15], over 100 µM; in assay [16], over 50.3 µM.
With `COc1ccc(-c2nnc3n(Cc4ccccc4)c4ccccc4n3c2=O)cc1`, the TGI was 99.6 µM in assay [1]; 99.5 µM in [2]; over 100 µM in assay [17]; over 100 µM in [3]; over 100 µM in assay [4]; over 100 µM in assay [5]. Further, the TGI was over 100 µM in assay [6]; over 100 µM in assay [8]; over 100 µM in assay [9]; 32.4 µM in assay [10]; 41.8 µM in assay [11]; over 100 µM in assay [12]. The TGI in [13] stood at 41.8 µM; in assay [14] it was 58.1 µM; in assay [15], 55 µM.
On to `N#CCCN(CCC#N)c1ccc(C(N=Nc2ccccc2)=Nc2ccc(Cl)cc2)cc1`, for which the TGI in [1], in assay [2], in assay [17], in [4], in [6] and in assay [7] was over 100 µM throughout. The TGI in assay [8], in assay [9], in [10], in assay [11], in assay [12] and in assay [13] was over 100 µM each time. The TGI in assay [14], in [15] and in assay [16] was over 100 µM in each case.
In the case of `CCOC(=O)C1=c2[nH]c3cccc4cccc(c43)n2C(=O)CC1c1ccccc1` (stereo unspecified), the TGI in [1], in assay [2], in assay [17], in [3], in assay [4] and in assay [5] was over 100 µM each time. Further, the TGI in [6], in [8], in assay [9], in assay [10], in assay [11] and in assay [12] was over 100 µM throughout. The TGI in assay [13], in assay [14], in [15] and in [16] was over 100 µM throughout.
`CCOC(=O)/C(N=Nc1ccc(-n2c(C)nc3ccc(Br)cc3c2=O)cc1)=C(/C)O`: the TGI in [1], in assay [2], in [17], in assay [3], in assay [4] and in assay [6] was over 100 µM each time. In addition, the TGI was over 100 µM in assay [7]; over 100 µM in assay [8]; over 100 µM in assay [9]; over 100 µM in [10]; over 100 µM in [11]; 31.9 µM in [12]. The TGI in [13] was 86.7 µM; in assay [14], over 100 µM; in assay [15], over 100 µM; in assay [16] it was over 100 µM.
On to `OC(c1cc2ccccc2[nH]1)C1(c2cccnc2)SCCCS1` (stereo unspecified), for which the TGI in [1], in assay [2], in [17], in [3], in assay [4] and in assay [5] was over 100 µM each time. The TGI in [6], in assay [8], in [9], in assay [10], in assay [11] and in assay [12] was over 100 µM each time. Besides, the TGI in [13], in assay [14], in assay [15] and in assay [16] was over 100 µM each time.
As for `O=C1C(Cl)C2(CC(/C=C/c3ccccc3O)=NN2c2cccc(S(=O)(=O)O)c2)N1c1nc2ccccc2s1` (stereo unspecified), the TGI was 50.5 µM in assay [1]; 53 µM in [2]; 45.8 µM in assay [17]; 24.7 µM in assay [3]; 37.8 µM in [4]; 27.1 µM in assay [5]. Moreover, the TGI was 33.2 µM in [6]; 45.8 µM in assay [8]; 63.9 µM in [9]; over 100 µM in assay [10]; 26.1 µM in assay [12]; over 100 µM in [13]. Moreover, the TGI in assay [14] was 26 µM; in [15] it was 46.9 µM; in [16], 30.9 µM.
Consider `Cc1cc(C)c2c(c1)C1=NCCN1C2(O)c1ccc(Cl)cc1` (stereo unspecified), for which the TGI in assay [1] was 28.6 µM; in assay [2], 29.6 µM; in assay [17] it was 33.3 µM; in assay [3] it was 93.4 µM; in [4], 28.4 µM; in assay [6] it was 33.1 µM. The TGI in assay [7] amounted to 31.4 µM; in [8], 33.1 µM; in assay [9], 30.2 µM; in assay [10], 36.3 µM; in assay [11], 31.4 µM; in [12], 27.7 µM. For the same compound, the TGI was 25 µM in assay [13], 15.5 µM in assay [14], 32.3 µM in assay [15] and 29.4 µM in [16].
As to `COC(=O)C1(C(=O)OC)N=C(C)OC1c1ccccn1` (stereo unspecified), the TGI in assay [1], in assay [2], in assay [17], in assay [3], in [4] and in [6] was over 100 µM each time. Further, the TGI in [7], in [8], in assay [9], in [10], in [11] and in assay [12] was over 100 µM each time. Moreover, the TGI in [13], in assay [14], in [15] and in [16] was over 100 µM throughout.
On to `O=C(NNC(=S)Nc1ccc(Br)cc1)c1cc(-c2ccccc2)nc2ccccc12`, for which the TGI is 28.6 µM in assay [1]; over 100 µM in assay [2]; 34.8 µM in [4]; 43.6 µM in assay [5]; 55.8 µM in assay [6]; 33.1 µM in assay [7]. Besides, the TGI in assay [8] was 79.3 µM; in assay [9] it was 57.7 µM; in [10], 46.3 µM; in assay [11], 38.3 µM; in assay [12], 30.5 µM; in assay [13] it was over 100 µM. For the same compound, the TGI was 42.2 µM in assay [14], 32.5 µM in assay [15] and 50.2 µM in assay [16].
Regarding `O=C(COc1ccc(OCC(=O)NNC2=NC(c3cc(F)c(Cl)cc3Cl)CS2)c(Cl)c1)NNC1=NC(c2cc(F)c(Cl)cc2Cl)CS1` (stereo unspecified), the TGI in [1] is 56.2 µM; in assay [2], over 100 µM; in assay [17], 77.3 µM; in assay [3], 5.15 µM; in assay [4] it was over 100 µM; in assay [5] it was over 100 µM. In addition, the TGI is 50.1 µM in [6]; over 100 µM in assay [8]; 64.5 µM in [9]; over 100 µM in assay [10]; 71.6 µM in assay [11]; over 100 µM in [14]. In addition, the TGI in assay [15] turned out to be 28.5 µM; in assay [16] it was 40.4 µM.
For `COC(=O)c1c2c(cc3c1CC1(C3)Cc3cc4c(c(C(C)=O)c3C1)CCC4)C=CC2` (stereo unspecified), the TGI in [1], in [2], in [17], in [4], in assay [6] and in assay [7] was over 31.6 µM each time. Also, the TGI in [8] is over 31.6 µM; in assay [9], over 31.6 µM; in assay [10], over 31.6 µM; in assay [11], over 31.6 µM; in assay [12], over 31.6 µM; in assay [13], 31.2 µM. For the same compound, the TGI in [14], in assay [15] and in assay [16] was over 31.6 µM throughout.
Take `CN(C)c1ccc(-c2c(C#N)c(O)n(NS(=O)(=O)c3ccccc3)c(=O)c2C#N)cc1`: the TGI in [1], in [2], in assay [17], in assay [3], in [4] and in assay [5] was over 100 µM throughout. The TGI in [8], in assay [9], in assay [10], in assay [12], in assay [13] and in [14] was over 100 µM each time. The TGI in assay [15] and in assay [16] was over 100 µM in each case.
On to `Nn1c(CCCCCCCCc2nnc(COc3ccccc3)n2N)nnc1COc1ccccc1`, for which the TGI in assay [1], in assay [2], in assay [17], in [3], in assay [4] and in [5] was over 100 µM in each case. Besides, the TGI in assay [6], in assay [8], in assay [9], in [10], in [11] and in assay [12] was over 100 µM throughout. Moreover, the TGI in assay [13], in assay [14], in [15] and in [16] was over 100 µM in each case.
On to `Cc1ccc(N=C2S/C(=C3/CCC=C3N3CCOCC3)N(c3ccc(Cl)cc3)C2=Nc2ccc(C)cc2)cc1`, for which the TGI in [1], in assay [2], in assay [17], in assay [4], in assay [5] and in assay [6] was over 100 µM each time. Further, the TGI in [8], in assay [9], in assay [10], in [12], in assay [13] and in [14] was over 100 µM each time. Also, the TGI in [15] and in assay [16] was over 100 µM in each case.
